Measurements taken from patent US20070010671A1, “Novel quinazoline derivatives and methods of treatment related to the use thereof” (priority 2003, published 2007).

What follows are compounds tested against MCH receptor (Homo sapiens, UniProt Q99705) (assay: High throughput functional screening FLIPR/FDSS6000: inhibition of MCH-evoked intracellular Ca2+ changes). Details: class by percent of control at 10^-7 M or IC50.
Assay type: cell-based
Summary of the method: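 Antagonism was measured as inhibition of calcium responses to 50 nM MCH, monitored 290 s at ex 488/em 530 nm on FLIPR or FDSS6000. Beforehand, cells bearing a constitutively active MCH receptor received Fluo4-AM (4 μM, 1 h, 37 °C) with probenecid, and test compound for 3 min.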

Row | Compound | class
1 | CC(C)c1ccc(NC(=S)N[C@H]2CC[C@@H](Nc3nc(N(C)C)c4ccccc4n3)CC2)c(Br)c1 [compound 363, N-(2-bromo-4-isopropylphenyl)-N′-(cis-4-{[4-(dimethylamino)quinazolin-2-yl]amino}cyclohexyl)thiourea] | 2 (Class 2: The value of percent of control at 10^−7 M was from 40% to 60% or the value of IC50 was from 50 nM to 200 nM.)
2 | CN(C)c1nc(N[C@H]2CC[C@@H](NC(=S)Nc3cc(F)ccc3Br)CC2)nc2ccccc12 [compound 364] | 2 (Class 2: The value of percent of control at 10^−7 M was from 40% to 60% or the value of IC50 was from 50 nM to 200 nM.)
3 | CCOc1ccccc1NC(=S)N[C@H]1CC[C@@H](Nc2nc(N(C)C)c3ccccc3n2)CC1 [compound 365, N-(cis-4-{[4-(dimethylamino)quinazolin-2-yl]amino}cyclohexyl)-N′-(2-ethoxyphenyl)thiourea] | 1 (Class 1: The value of percent of control at 10^−7 M was less than 40% or the value of IC50 was less than 50 nM.)
4 | Cc1cccc(C(C)C)c1NC(=S)N[C@H]1CC[C@@H](Nc2nc(N(C)C)c3ccccc3n2)CC1 [compound 366, N-(cis-4-{[4-(dimethylamino)quinazolin-2-yl]amino}cyclohexyl)-N′-(2-isopropyl-6-methylphenyl)thiourea] | 1 (Class 1: The value of percent of control at 10^−7 M was less than 40% or the value of IC50 was less than 50 nM.)
5 | COc1ccccc1CNC(=S)N[C@H]1CC[C@@H](Nc2nc(N(C)C)c3ccccc3n2)CC1 [compound 367, N-(cis-4-{[4-(dimethylamino)quinazolin-2-yl]amino}cyclohexyl)-N′-(2-methoxybenzyl)thiourea] | 2 (Class 2: The value of percent of control at 10^−7 M was from 40% to 60% or the value of IC50 was from 50 nM to 200 nM.)
6 | CN(C)c1nc(N[C@H]2CC[C@@H](NC(=S)Nc3ccc4c(c3)OCCO4)CC2)nc2ccccc12 [compound 368, N-(2,3-dihydro-1,4-benzodioxin-6-yl)-N′-(cis-4-{[4-(dimethylamino)quinazolin-2-yl]amino}cyclohexyl)thiourea] | 1 (Class 1: The value of percent of control at 10^−7 M was less than 40% or the value of IC50 was less than 50 nM.)
7 | Cc1ccc(NC(=S)N[C@H]2CC[C@@H](Nc3nc(N(C)C)c4ccccc4n3)CC2)cc1C [compound 369] | 3 (Class 3: The value of percent of control at 10^−7 M was more than 60% or the value of IC50 was more than 200 nM.)
8 | CN(C)c1nc(N[C@H]2CC[C@@H](NC(=S)Nc3ccc4c(c3)OCO4)CC2)nc2ccccc12 [compound 370, N-1,3-benzodioxol-5-yl-N′-(cis-4-{[4-(dimethylamino)quinazolin-2-yl]amino}cyclohexyl)thiourea] | 1 (Class 1: The value of percent of control at 10^−7 M was less than 40% or the value of IC50 was less than 50 nM.)
9 | Cc1c(Cl)cccc1NC(=S)N[C@H]1CC[C@@H](Nc2nc(N(C)C)c3ccccc3n2)CC1 [compound 371] | 1 (Class 1: The value of percent of control at 10^−7 M was less than 40% or the value of IC50 was less than 50 nM.)
10 | CN(C)c1nc(N[C@H]2CC[C@@H](NC(=S)Nc3ccc(Br)cc3OC(F)(F)F)CC2)nc2ccccc12 [compound 372, N-[4-bromo-2-(trifluoromethoxy)phenyl]-N′-(cis-4-{[4-(dimethylamino)quinazolin-2-yl]amino}cyclohexyl)thiourea] | 1 (Class 1: The value of percent of control at 10^−7 M was less than 40% or the value of IC50 was less than 50 nM.)
11 | COc1cc(NC(=S)N[C@H]2CC[C@@H](Nc3nc(N(C)C)c4ccccc4n3)CC2)c(OC)cc1Cl [compound 373, N-(4-chloro-2,5-dimethoxyphenyl)-N′-(cis-4-{[4-(dimethylamino)quinazolin-2-yl]amino}cyclohexyl)thiourea] | 1 (Class 1: The value of percent of control at 10^−7 M was less than 40% or the value of IC50 was less than 50 nM.)
12 | CN(C)c1nc(N[C@H]2CC[C@@H](NC(=S)NCCCCc3ccccc3)CC2)nc2ccccc12 [compound 374] | 2 (Class 2: The value of percent of control at 10^−7 M was from 40% to 60% or the value of IC50 was from 50 nM to 200 nM.)
13 | CN(C)c1nc(N[C@H]2CC[C@@H](NC(=S)Nc3ccc(C(C)(C)C)cc3)CC2)nc2ccccc12 [compound 375] | 3 (Class 3: The value of percent of control at 10^−7 M was more than 60% or the value of IC50 was more than 200 nM.)
14 | CN(C)c1nc(N[C@H]2CC[C@@H](NC(=S)Nc3cc(Cl)ccc3F)CC2)nc2ccccc12 [compound 376] | 3 (Class 3: The value of percent of control at 10^−7 M was more than 60% or the value of IC50 was more than 200 nM.)
15 | CN(C)c1nc(N[C@H]2CC[C@@H](NC(=S)NCC3CC3)CC2)nc2ccccc12 [compound 379] | 3 (Class 3: The value of percent of control at 10^−7 M was more than 60% or the value of IC50 was more than 200 nM.)
16 | CCOC(=O)c1c(NC(=S)N[C@H]2CC[C@@H](Nc3nc(N(C)C)c4ccccc4n3)CC2)sc2c1CCCC2 [compound 380] | 3 (Class 3: The value of percent of control at 10^−7 M was more than 60% or the value of IC50 was more than 200 nM.)
17 | COC(=O)c1scc(C)c1NC(=S)N[C@H]1CC[C@@H](Nc2nc(N(C)C)c3ccccc3n2)CC1 [compound 381] | 1 (Class 1: The value of percent of control at 10^−7 M was less than 40% or the value of IC50 was less than 50 nM.)
18 | COC(=O)c1sccc1NC(=S)N[C@H]1CC[C@@H](Nc2nc(N(C)C)c3ccccc3n2)CC1 [compound 382] | 1 (Class 1: The value of percent of control at 10^−7 M was less than 40% or the value of IC50 was less than 50 nM.)

Row | Compound | class
19 | CN(C)c1nc(N[C@H]2CC[C@@H](NC(=S)Nc3ccc(F)cc3Br)CC2)nc2ccccc12 [compound 383] | 2 (Class 2: The value of percent of control at 10^−7 M was from 40% to 60% or the value of IC50 was from 50 nM to 200 nM.)
20 | CN(C)c1nc(N[C@H]2CC[C@@H](NC(=S)Nc3ccc(F)c(Cl)c3)CC2)nc2ccccc12 [compound 384] | 3 (Class 3: The value of percent of control at 10^−7 M was more than 60% or the value of IC50 was more than 200 nM.)
21 | CCCCc1ccc(NC(=S)N[C@H]2CC[C@@H](Nc3nc(N(C)C)c4ccccc4n3)CC2)c(C)c1 [compound 385] | 1 (Class 1: The value of percent of control at 10^−7 M was less than 40% or the value of IC50 was less than 50 nM.)
22 | CN(C)c1ccc(NC(=S)N[C@H]2CC[C@@H](Nc3nc(N(C)C)c4ccccc4n3)CC2)cc1 [compound 386] | 3 (Class 3: The value of percent of control at 10^−7 M was more than 60% or the value of IC50 was more than 200 nM.)
23 | CCN(CC)CCCNC(=S)N[C@H]1CC[C@@H](Nc2nc(N(C)C)c3ccccc3n2)CC1 [compound 387] | 3 (Class 3: The value of percent of control at 10^−7 M was more than 60% or the value of IC50 was more than 200 nM.)
24 | CN(C)c1nc(N[C@H]2CC[C@@H](NC(=S)NCCN3CCOCC3)CC2)nc2ccccc12 [compound 388] | 3 (Class 3: The value of percent of control at 10^−7 M was more than 60% or the value of IC50 was more than 200 nM.)
25 | CN(C)c1nc(N[C@H]2CC[C@@H](NC(=S)Nc3ccc(N(C)C)c4ccccc34)CC2)nc2ccccc12 [compound 389, N-[4-(dimethylamino)-1-naphthyl]-N′-(cis-4-{[4-(dimethylamino)quinazolin-2-yl]amino}cyclohexyl)thiourea] | 1 (Class 1: The value of percent of control at 10^−7 M was less than 40% or the value of IC50 was less than 50 nM.)
26 | CN(C)c1nc(N[C@H]2CC[C@@H](NC(=S)Nc3cccnc3)CC2)nc2ccccc12 [compound 390] | 3 (Class 3: The value of percent of control at 10^−7 M was more than 60% or the value of IC50 was more than 200 nM.)
27 | CN(C)c1ccc(/N=N/c2ccc(NC(=S)N[C@H]3CC[C@@H](Nc4nc(N(C)C)c5ccccc5n4)CC3)cc2)cc1 [compound 391] | 3 (Class 3: The value of percent of control at 10^−7 M was more than 60% or the value of IC50 was more than 200 nM.)
28 | CN(C)c1nc(N[C@H]2CC[C@@H](NC(=S)NCCCN3CCOCC3)CC2)nc2ccccc12 [compound 392] | 3 (Class 3: The value of percent of control at 10^−7 M was more than 60% or the value of IC50 was more than 200 nM.)
29 | CCN(CC)c1ccc(NC(=S)N[C@H]2CC[C@@H](Nc3nc(N(C)C)c4ccccc4n3)CC2)cc1 [compound 393] | 3 (Class 3: The value of percent of control at 10^−7 M was more than 60% or the value of IC50 was more than 200 nM.)
30 | CN(C)c1nc(N[C@H]2CC[C@@H](NC(=S)Nc3ccc(/N=N/c4ccccc4)cc3)CC2)nc2ccccc12 [compound 394] | 3 (Class 3: The value of percent of control at 10^−7 M was more than 60% or the value of IC50 was more than 200 nM.)
31 | CN(C)c1nc(N[C@H]2CC[C@@H](NC(=S)NCCN3CCCCC3)CC2)nc2ccccc12 [compound 395] | 3 (Class 3: The value of percent of control at 10^−7 M was more than 60% or the value of IC50 was more than 200 nM.)
32 | CN(C)c1nc(N[C@H]2CC[C@@H](NC(=S)NCc3cccnc3)CC2)nc2ccccc12 [compound 396] | 3 (Class 3: The value of percent of control at 10^−7 M was more than 60% or the value of IC50 was more than 200 nM.)
33 | CN(C)c1nc(N[C@H]2CC[C@@H](NC(=S)Nc3ccc(-n4cccn4)cc3)CC2)nc2ccccc12 [compound 397] | 3 (Class 3: The value of percent of control at 10^−7 M was more than 60% or the value of IC50 was more than 200 nM.)
34 | CN(C)c1nc(N[C@H]2CC[C@@H](NC(=S)Nc3cccc4nsnc34)CC2)nc2ccccc12 [compound 398] | 3 (Class 3: The value of percent of control at 10^−7 M was more than 60% or the value of IC50 was more than 200 nM.)
35 | CN(C)c1nc(N[C@H]2CC[C@@H](NC(=S)Nc3ccc4nsnc4c3)CC2)nc2ccccc12 [compound 399] | 3 (Class 3: The value of percent of control at 10^−7 M was more than 60% or the value of IC50 was more than 200 nM.)
36 | Cc1noc(C)c1NC(=S)N[C@H]1CC[C@@H](Nc2nc(N(C)C)c3ccccc3n2)CC1 [compound 400] | 3 (Class 3: The value of percent of control at 10^−7 M was more than 60% or the value of IC50 was more than 200 nM.)
